Test results: US9944752B2, “Block copolymers for stable micelles” (Intezyne Technologies, Inc., priority 2012, dated 2018)
Values belong to the compound of their own block, whether it stands above or below them.

How the values were obtained:
[1] = Rat pharmacokinetics of crosslinked cabizataxel micelles; set-up: species or system Fisher rats; conditions: Fisher, in vivo, iv, 5 mg/kg
From the text: The delivery vehicle for drug administration was isotonic saline.

A549 lung cancer cells = assay: In-vitro cytotoxicity of aminopterin formulations (cell titer-glo); type: cell-based; conditions: Homo sapiens, A549, 72 h, read-out: IC50 (cell viability inhibited by 50%)
Procedure: (§1) Cells originally purchased from ATCC (A549, Panc-1, OVCAR3, and BXPC-3) were seeded in 96 well tissue culture plates to be 50% confluent by 24 hours. Cells were incubated at 37° C. with 5.0% CO2. Cells were treated with escalating doses of free aminopterin, crosslinked aminopterin formulation, uncrosslinked aminopterin formulation, and non drug-loaded micelle formulations 24 hours after plate seeding. Free aminopterin was dissolved in DMSO and administered to cells with a total volume of DMSO equal to or less than 0.0025%. Micelle formulations were re-suspended in biology grade water. Dilutions were done in deep well plates with cell media and water or DMSO (for free aminopterin only) equalizing displaced volume. Incubation media was aspirated from the 96 well plates and 100 μl of each dilution was added to the wells in triplicate and incubated over 72 hours at 37° C. with 5.0% CO2. Crosslinked and uncrosslinked non drug-loaded micelle formulations were administered at the four highest doses and were calculated at comparative mg/ml concentrations to drug-loaded micelle concentrations of delivery vehicle. […] Plates were briefly shaken to mix and luminescence readings were read on a plate reader. Luminescence reading for triplicate doses are averaged and divided by average luminescence readings from untreated cells on the same plate to calculate the % of viable cells per dose. […]

[2] = test system: PANC-1 pancreatic (folate receptor +) cancer cells; assay: as above; type: cell-based; conditions: Homo sapiens, PANC-1, 72 h, read-out: IC50 (cell viability inhibited by 50%)
Procedure: as §1

[3] = set-up: species or system Fisher rats; conditions: Fisher, rat, in vivo, iv, 10 mg/kg
Procedure: The delivery vehicle for drug administration was isotonic saline. […] Samples were analyzed on a Waters Alliance 2695 equipped with a 2475 fluorescence detector (Ex=470 nm; Em=580). A 5 μL sample injection was made onto a Waters 4 μm Nova Pak C18 (3.9×150 mm) at 30° C. with a flow rate of 0.750 mL per minute of 10 mM phosphate buffer (pH=1.4), methanol and acetonitrile (gradient from 70/10/20 to 40/10/50 for buffer/methanol/acetonitrile was made over eight minutes). Analyte eluted at 5.9 minutes under these conditions, was normalized to the internal standard, and quantitated using a standard curve comprised of seven standards.

- Exposure of cabazitaxel to the plasma compartment over 15 minutes [1]: 200 ng·h/mL
SMILES: CO[C@H]1C(=O)[C@]2(C)[C@@H](OC)C[C@H]3OC[C@@]3(OC(C)=O)[C@H]2[C@H](OC(=O)c2ccccc2)[C@]2(O)C[C@H](OC(=O)[C@H](O)[C@@H](NC(=O)OC(C)(C)C)c3ccccc3)C(C)=C1C2(C)C [free cabizataxel, cabazitaxel]

SMILES: Nc1nc(N)c2nc(CNc3ccc(C(=O)N[C@@H](CCC(=O)O)C(=O)O)cc3)cnc2n1 [Aminopterin, aminopterin]
- IC50 (A549 lung cancer cells): 7 to 25 nM
- IC50 [2]: 7 to 25 nM

- CMax [3]: 3.3 µg/mL
- Half-life [3]: 3.3 h
SMILES: COc1cccc2c1C(=O)c1c(O)c3c(c(O)c1C2=O)C[C@@](O)(C(C)=O)C[C@@H]3O[C@H]1C[C@H](N)[C@H](O)[C@H](C)O1 [free daunorubicin, daunorubicin]
